“And” between values parts separate entries of the source, which are not always exact repeats. Identical values can stand only once. Like-named read-outs stand apart in the source and are kept apart here. Where a SMILES comes first, the peptide text is derived from it. Where no end group is shown, it is not given here. The star is where a group is joined. Succinimide(1-Et,3-yl) = CCN1C(=O)CC(*)C1=O
Molecular target: T1, human CRHR2 (Homo sapiens, UniProt Q13324)
T1 construct: expressed in transfected cells
T1 sequence (Q13324 1-411): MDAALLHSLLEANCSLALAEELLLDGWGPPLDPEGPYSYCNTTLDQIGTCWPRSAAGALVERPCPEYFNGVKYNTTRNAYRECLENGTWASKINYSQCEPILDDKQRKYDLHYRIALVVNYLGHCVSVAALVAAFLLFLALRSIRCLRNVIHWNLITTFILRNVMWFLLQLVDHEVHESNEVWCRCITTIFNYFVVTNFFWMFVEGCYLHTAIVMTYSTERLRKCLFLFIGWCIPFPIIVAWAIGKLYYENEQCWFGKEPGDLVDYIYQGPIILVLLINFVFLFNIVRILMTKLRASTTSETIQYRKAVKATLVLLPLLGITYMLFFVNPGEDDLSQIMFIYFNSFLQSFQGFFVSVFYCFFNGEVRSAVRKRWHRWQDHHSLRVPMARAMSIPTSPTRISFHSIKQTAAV
Experiment: cAMP assay, h-CRHR2 transfected SK-N-MC cells
Type: cell-based
Details: for EC50: read-out: pA50 (converted); for Log DR [M]: h-SCP control pA50 minus test compound pA50 within the same assay batch; for αmax: normalized to the maximum response to h-SCP
Outline: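 SK-N-MC cells stably expressing human CRHR2 were treated with peptides (1 pM to 1 μM) for 60 min at 37 °C in IBMX-containing medium, with 10 μM forskolin as positive control. Cells were lysed with 0.5 M HCl and cAMP measured by [125I]-cAMP competition flash plate. A50 came from Hill-equation fits, normalised to h-SCP maximum.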

[1] = Table 13, cysteine mutation, N-ethylmaleimide capping, pegylation
[2] = Table 12, amidation and N-terminal deletions, normalized to maximum response to h-SCP, 3-5 replicate experiments

| EC50 [1] | Log DR [M] (Table 13) | Compound | nH (Table 12) | EC50 [2] | αmax (Table 12) |
| --- | --- | --- | --- | --- | --- |
| ~56.2 nM | ~2.22 | CC[C@H](C)[C@H](NC(=O)[C@H](CCC(N)=O)NC(=O)[C@H](C)NC(=O)[C@H](CCSC)NC(=O)[C@H](CC(C)C)NC(=O)[C@H](Cc1c[nH]cn1)NC(=O)[C@H](C)NC(=O)[C@H](CC(N)=O)NC(=O)[C@H](C)NC(=O)[C@H](C)NC(=O)[C@H](C)NC(=O)[C@H](CCC(N)=O)NC(=O)[C@H](C)NC(=O)[C@H](CCCNC(=N)N)NC(=O)[C@H](CC(C)C)NC(=O)[C@H](CC(N)=O)NC(=O)[C@H](CCCCN)NC(=O)[C@H](C)NC(=O)[C@H](CCCCN)NC(=O)[C@H](C)NC(=O)[C@@H](NC(=O)[C@H](CC(N)=O)NC(=O)[C@H](Cc1ccccc1)NC(=O)[C@H](CSC1CC(=O)N(CC)C1=O)NC(=O)[C@H](CC(C)C)NC(=O)[C@H](CC(N)=O)NC(=O)[C@H](CCSC)NC(=O)[C@@H](NC(=O)[C@H](CC(N)=O)NC(=O)[C@@H](NC(=O)[C@@H]1CCCN1C(=O)[C@@H](NC(=O)[C@H](CC(=O)O)NC(=O)[C@H](CC(C)C)NC(=O)[C@H](CO)NC(=O)[C@H](CC(C)C)NC(=O)[C@@H](NC(=O)[C@H](Cc1ccccc1)NC(=O)[C@H](CCCCN)NC(=O)[C@@H](N)[C@@H](C)O)[C@@H](C)O)C(C)C)[C@@H](C)O)[C@@H](C)CC)[C@@H](C)CC)C(N)=O (stereo partly drawn) [SEQ ID NO: 53, TKFTL SLDVP TNIMN LC(-NES)FNI AKAKN LRAQA AANAH LMAQI-NH2] (H-TKFTLSLDVPTNIMNLC(Succinimide(1-Et,3-yl))FNIAKAKNLRAQAAANAHLMAQI-NH2) |  |  |  |
| 0.282 nM | −0.08 | CC[C@H](C)[C@H](NC(=O)[C@H](CCC(N)=O)NC(=O)[C@H](C)NC(=O)[C@H](CCSC)NC(=O)[C@H](CC(C)C)NC(=O)[C@H](Cc1c[nH]cn1)NC(=O)[C@H](C)NC(=O)[C@H](CC(N)=O)NC(=O)[C@H](C)NC(=O)[C@H](C)NC(=O)[C@H](C)NC(=O)[C@H](CCC(N)=O)NC(=O)[C@H](C)NC(=O)[C@H](CCCNC(=N)N)NC(=O)[C@H](CC(C)C)NC(=O)[C@H](CC(N)=O)NC(=O)[C@H](CCCCN)NC(=O)[C@H](C)NC(=O)[C@H](CCCCN)NC(=O)[C@H](C)NC(=O)[C@@H](NC(=O)[C@H](CC(N)=O)NC(=O)[C@H](Cc1ccccc1)NC(=O)[C@H](CC(C)C)NC(=O)[C@H](CSC1CC(=O)N(CC)C1=O)NC(=O)[C@H](CC(N)=O)NC(=O)[C@H](CCSC)NC(=O)[C@@H](NC(=O)[C@H](CC(N)=O)NC(=O)[C@@H](NC(=O)[C@@H]1CCCN1C(=O)[C@@H](NC(=O)[C@H](CC(=O)O)NC(=O)[C@H](CC(C)C)NC(=O)[C@H](CO)NC(=O)[C@H](CC(C)C)NC(=O)[C@@H](NC(=O)[C@H](Cc1ccccc1)NC(=O)[C@H](CCCCN)NC(=O)[C@@H](N)[C@@H](C)O)[C@@H](C)O)C(C)C)[C@@H](C)O)[C@@H](C)CC)[C@@H](C)CC)C(N)=O (stereo partly drawn) [SEQ ID NO: 54, TKFTL SLDVP TNIMN C(-NES)LFNI AKAKN LRAQA AANAH LMAQI-NH2] (H-TKFTLSLDVPTNIMNC(Succinimide(1-Et,3-yl))LFNIAKAKNLRAQAAANAHLMAQI-NH2; N-terminus assumed) |  |  |  |
| 1.07 nM | 0.72 | CKFTLSLDVPTNIMNLLFNIAKAKNLRAQAAANAHLMAQI-NH2 [SEQ ID NO: 2, CKFTLSLDVPTNIMNLLFNIAKAKNLRAQAAANAHLMAQI-NH2] |  |  |  |
| ~45.7 nM | >2 | H-TKFTLSLDVPTNCMNLLFNIAKAKNLRAQAAANAHLMAQI-NH2 [SEQ ID NO: 14, TKFTLSLDVPTNCMNLLFNIAKAKNLRAQAAANAHLMAQI-NH2] |  |  |  |
| 1.17 nM | 0.76 | H-TKFTLSLDVPTNIMCLLFNIAKAKNLRAQAAANAHLMAQI-NH2 [SEQ ID NO: 16, TKFTLSLDVPTNIMCLLFNIAKAKNLRAQAAANAHLMAQI-NH2] |  |  |  |
| 9.77 nM | 1.67 | H-TKFTLSLDVPTNIMNLLCNIAKAKNLRAQAAANAHLMAQI-NH2 [SEQ ID NO: 19, TKFTLSLDVPTNIMNLLCNIAKAKNLRAQAAANAHLMAQI-NH2] |  |  |  |
| 0.617 nM | 0.41 | H-TKFTLSLDVPTNIMNLLFNIAKAKNLRAQAAANAHLMCQI-NH2 [SEQ ID NO: 39, TKFTLSLDVPTNIMNLLFNIAKAKNLRAQAAANAHLMCQI-NH2] |  |  |  |
| 1.17 nM | 0.70 | H-TKFTLSLDVPTNIMNLLFNIAKAKNLRAQAAANCHLMAQI-NH2 [SEQ ID NO: 35, TKFTLSLDVPTNIMNLLFNIAKAKNLRAQAAANCHLMAQI-NH2] |  |  |  |
| 0.851 nM | 0.45 | H-TKFTLSLDVPTNIMNLLFNIAKAKNLRAQAACNAHLMAQI-NH2 [SEQ ID NO: 33, TKFTLSLDVPTNIMNLLFNIAKAKNLRAQAACNAHLMAQI-NH2] |  |  |  |
| 0.389 nM | 0.11 | H-TKFTLSLDVPTNIMNLLFNIAKAKNLRAQACANAHLMAQI-NH2 [SEQ ID NO: 32, TKFTLSLDVPTNIMNLLFNIAKAKNLRAQACANAHLMAQI-NH2] |  |  |  |
| 0.339 nM | 0.00 | H-TKFTLSLDVPTNIMNLLFNIAKAKNLRCQAAANAHLMAQI-NH2 [SEQ ID NO: 29, TKFTLSLDVPTNIMNLLFNIAKAKNLRCQAAANAHLMAQI-NH2] |  |  |  |
|  |  | KFTLSLDVPTNIMNLLFNIAKAKNLRAQAAANAHLMAQI-NH2 [SEQ ID NO: 107, KFTLSLDVPTNIMNLLFNIAKAKNLRAQAAANAHLMAQI-NH2] | 1.07 | 0.575 nM and 0.562 nM | 111.3 |
|  |  | LSLDVPTNIMNLLFNIAKAKNLRAQAAANAHLMAQI-NH2 [SEQ ID NO: 109, LSLDVPTNIMNLLFNIAKAKNLRAQAAANAHLMAQI-NH2] | 0.74 | 46.8 nM and 45.7 nM | 109.6 |
| 1.07 nM | 0.72 | TCFTLSLDVPTNIMNLLFNIAKAKNLRAQAAANAHLMAQI-NH2 [SEQ ID NO: 3, TCFTLSLDVPTNIMNLLFNIAKAKNLRAQAAANAHLMAQI-NH2] |  |  |  |
| 2.24 nM | 1.03 | TKCTLSLDVPTNIMNLLFNIAKAKNLRAQAAANAHLMAQI-NH2 [SEQ ID NO: 4, TKCTLSLDVPTNIMNLLFNIAKAKNLRAQAAANAHLMAQI-NH2] |  |  |  |
| 1.17 nM | 0.76 | TKFCLSLDVPTNIMNLLFNIAKAKNLRAQAAANAHLMAQI-NH2 [SEQ ID NO: 5, TKFCLSLDVPTNIMNLLFNIAKAKNLRAQAAANAHLMAQI-NH2] |  |  |  |
| 0.851 nM | 0.61 | TKFTCSLDVPTNIMNLLFNIAKAKNLRAQAAANAHLMAQI-NH2 [SEQ ID NO: 6, TKFTCSLDVPTNIMNLLFNIAKAKNLRAQAAANAHLMAQI-NH2] |  |  |  |
| 25.1 nM | 2.08 | TKFTLCLDVPTNIMNLLFNIAKAKNLRAQAAANAHLMAQI-NH2 [SEQ ID NO: 7, TKFTLCLDVPTNIMNLLFNIAKAKNLRAQAAANAHLMAQI-NH2] |  |  |  |
| ~151 nM | 2.86 | TKFTLSCDVPTNIMNLLFNIAKAKNLRAQAAANAHLMAQI-NH2 [SEQ ID NO: 8, TKFTLSCDVPTNIMNLLFNIAKAKNLRAQAAANAHLMAQI-NH2] |  |  |  |
| 15.8 nM | 1.89 | TKFTLSLCVPTNIMNLLFNIAKAKNLRAQAAANAHLMAQI-NH2 [SEQ ID NO: 9, TKFTLSLCVPTNIMNLLFNIAKAKNLRAQAAANAHLMAQI-NH2] |  |  |  |
| 5.25 nM | 1.30 | TKFTLSLDCPTNIMNLLFNIAKAKNLRAQAAANAHLMAQI-NH2 [SEQ ID NO: 10, TKFTLSLDCPTNIMNLLFNIAKAKNLRAQAAANAHLMAQI-NH2] |  |  |  |
| 1.74 nM | 0.82 | TKFTLSLDVCTNIMNLLFNIAKAKNLRAQAAANAHLMAQI-NH2 [SEQ ID NO: 11, TKFTLSLDVCTNIMNLLFNIAKAKNLRAQAAANAHLMAQI-NH2] |  |  |  |
| 13.8 nM | 1.72 | TKFTLSLDVPCNIMNLLFNIAKAKNLRAQAAANAHLMAQI-NH2 [SEQ ID NO: 12, TKFTLSLDVPCNIMNLLFNIAKAKNLRAQAAANAHLMAQI-NH2] |  |  |  |
| 0.257 nM | −0.01 | TKFTLSLDVPTCIMNLLFNIAKAKNLRAQAAANAHLMAQI-NH2 [SEQ ID NO: 13, TKFTLSLDVPTCIMNLLFNIAKAKNLRAQAAANAHLMAQI-NH2] |  |  |  |
| 2.09 nM | 0.90 | TKFTLSLDVPTNICNLLFNIAKAKNLRAQAAANAHLMAQI-NH2 [SEQ ID NO: 15, TKFTLSLDVPTNICNLLFNIAKAKNLRAQAAANAHLMAQI-NH2] |  |  |  |
| 0.316 nM | 0.02 | TKFTLSLDVPTNIMNCLFNIAKAKNLRAQAAANAHLMAQI-NH2 [SEQ ID NO: 17, TKFTLSLDVPTNIMNCLFNIAKAKNLRAQAAANAHLMAQI-NH2] |  |  |  |
| 3.89 nM | 1.11 | TKFTLSLDVPTNIMNLCFNIAKAKNLRAQAAANAHLMAQI-NH2 [SEQ ID NO: 18, TKFTLSLDVPTNIMNLCFNIAKAKNLRAQAAANAHLMAQI-NH2] |  |  |  |
| 1 nM | 0.52 | TKFTLSLDVPTNIMNLLFCIAKAKNLRAQAAANAHLMAQI-NH2 [SEQ ID NO: 20, TKFTLSLDVPTNIMNLLFCIAKAKNLRAQAAANAHLMAQI-NH2] |  |  |  |
| 1.78 nM | 0.77 | TKFTLSLDVPTNIMNLLFNCAKAKNLRAQAAANAHLMAQI-NH2 [SEQ ID NO: 21, TKFTLSLDVPTNIMNLLFNCAKAKNLRAQAAANAHLMAQI-NH2] |  |  |  |

Source: patent US20110105397A1, “METHOD FOR TREATING HEART FAILURE WITH STRESSCOPIN-LIKE PEPTIDES” (priority 2009, published 2011)
